Source: the NIST ThermoML archive (doi:10.1016/j.jct.2018.04.018)
Several values for one entry are separate records, joined by “and”; a condition that tells them apart may be missing. Equal values may be shown once.

Settings: 101.33 kPa, Liquid; for speed of sound: Single path-length method; for mass density: Vibrating tube method

CCCCCCCC[n+]1ccn(C)c1.F[P-](F)(F)(F)(F)F [1-octyl-3-methylimidazolium hexafluorophosphate]
Settings	viscosity
332.11 K, Cone and plate viscometry	101.6 mPa·s
332.85 K, Cone and plate viscometry	99.6 mPa·s and 99.3 mPa·s
333.15 K, Concentric cylinders viscometry	98.3 mPa·s
333.59 K, Cone and plate viscometry	95.7 mPa·s and 96 mPa·s
334.34 K, Cone and plate viscometry	92.5 mPa·s
334.35 K, Cone and plate viscometry	93 mPa·s
335.07 K, Cone and plate viscometry	89.7 mPa·s
335.09 K, Cone and plate viscometry	89.6 mPa·s
335.82 K, Cone and plate viscometry	86.7 mPa·s and 86.8 mPa·s
336.57 K, Cone and plate viscometry	84.1 mPa·s
337.31 K, Cone and plate viscometry	81.6 mPa·s and 81.7 mPa·s
338.05 K, Cone and plate viscometry	79.3 mPa·s
338.06 K, Cone and plate viscometry	78.8 mPa·s
338.79 K, Cone and plate viscometry	76.6 mPa·s
338.81 K, Cone and plate viscometry	76.2 mPa·s
339.54 K, Cone and plate viscometry	73.9 mPa·s and 74.2 mPa·s
340.28 K, Cone and plate viscometry	72 mPa·s
340.29 K, Cone and plate viscometry	71.9 mPa·s
341.03 K, Cone and plate viscometry	70 mPa·s
341.04 K, Cone and plate viscometry	69.8 mPa·s
341.77 K, Cone and plate viscometry	68 mPa·s and 68.1 mPa·s
342.51 K, Cone and plate viscometry	66.1 mPa·s and 66.6 mPa·s
343.15 K, Concentric cylinders viscometry	64.9 mPa·s
343.25 K, Cone and plate viscometry	64.1 mPa·s and 63.9 mPa·s
344 K, Cone and plate viscometry	62.2 mPa·s and 62 mPa·s
344.73 K, Cone and plate viscometry	60.4 mPa·s
344.76 K, Cone and plate viscometry	60.4 mPa·s
345.48 K, Cone and plate viscometry	58.8 mPa·s
345.51 K, Cone and plate viscometry	58.8 mPa·s
346.22 K, Cone and plate viscometry	57.2 mPa·s
346.29 K, Cone and plate viscometry	56.9 mPa·s
346.97 K, Cone and plate viscometry	55.4 mPa·s
347.05 K, Cone and plate viscometry	55.1 mPa·s
347.72 K, Cone and plate viscometry	53.8 mPa·s
347.81 K, Cone and plate viscometry	53.7 mPa·s
348.46 K, Cone and plate viscometry	52.4 mPa·s
348.57 K, Cone and plate viscometry	52.3 mPa·s
349.19 K, Cone and plate viscometry	51.1 mPa·s
349.33 K, Cone and plate viscometry	50.8 mPa·s
349.94 K, Cone and plate viscometry	49.7 mPa·s
350.07 K, Cone and plate viscometry	49.4 mPa·s
350.69 K, Cone and plate viscometry	48.3 mPa·s
350.77 K, Cone and plate viscometry	48.2 mPa·s
351.42 K, Cone and plate viscometry	47 mPa·s
351.48 K, Cone and plate viscometry	47.2 mPa·s
352.16 K, Cone and plate viscometry	46 mPa·s
352.22 K, Cone and plate viscometry	46.3 mPa·s
352.91 K, Cone and plate viscometry	45.1 mPa·s
352.99 K, Cone and plate viscometry	45.2 mPa·s
353.15 K, Concentric cylinders viscometry	44.7 mPa·s
353.66 K, Cone and plate viscometry	43.7 mPa·s
353.75 K, Cone and plate viscometry	44.3 mPa·s
354.39 K, Cone and plate viscometry	42.6 mPa·s
354.48 K, Cone and plate viscometry	43 mPa·s
355.14 K, Cone and plate viscometry	41.9 mPa·s
355.2 K, Cone and plate viscometry	42 mPa·s
355.88 K, Cone and plate viscometry	40.9 mPa·s
355.92 K, Cone and plate viscometry	41.3 mPa·s
356.63 K, Cone and plate viscometry	40.2 mPa·s
356.66 K, Cone and plate viscometry	40.5 mPa·s
357.36 K, Cone and plate viscometry	39 mPa·s
357.39 K, Cone and plate viscometry	39.2 mPa·s
358.1 K, Cone and plate viscometry	37.6 mPa·s
358.11 K, Cone and plate viscometry	38 mPa·s
358.85 K, Cone and plate viscometry	36.5 mPa·s
358.86 K, Cone and plate viscometry	37 mPa·s
359.6 K, Cone and plate viscometry	35.6 mPa·s and 36.5 mPa·s
360.35 K, Cone and plate viscometry	34.8 mPa·s and 35.7 mPa·s
361.08 K, Cone and plate viscometry	34.6 mPa·s
361.09 K, Cone and plate viscometry	35 mPa·s
361.82 K, Cone and plate viscometry	33.9 mPa·s and 34 mPa·s
362.57 K, Cone and plate viscometry	32.8 mPa·s
362.58 K, Cone and plate viscometry	32.5 mPa·s
363.15 K, Concentric cylinders viscometry	32.1 mPa·s
363.31 K, Cone and plate viscometry	32.1 mPa·s
363.32 K, Cone and plate viscometry	31.9 mPa·s
364.05 K, Cone and plate viscometry	31.3 mPa·s and 31.4 mPa·s
364.79 K, Cone and plate viscometry	31.1 mPa·s
364.8 K, Cone and plate viscometry	30.9 mPa·s
365.54 K, Cone and plate viscometry	29.7 mPa·s and 30.4 mPa·s
366.28 K, Cone and plate viscometry	29.6 mPa·s
366.29 K, Cone and plate viscometry	29.1 mPa·s
367.02 K, Cone and plate viscometry	28.7 mPa·s and 28.9 mPa·s
367.76 K, Cone and plate viscometry	27.9 mPa·s and 28.2 mPa·s
368.49 K, Cone and plate viscometry	27.6 mPa·s
368.51 K, Cone and plate viscometry	27.1 mPa·s
369.24 K, Cone and plate viscometry	27 mPa·s

Settings	mass density	speed of sound [m/s]
333.15 K	1209.85 kg/m3 [middle of 4 runs]	1318.6
343.15 K	1202.43 kg/m3 [middle of 4 runs]	–
343.16 K	–	1296.1
353.15 K	1195.18 kg/m3 and 1195.41 kg/m3	–
363.15 K	1188.37 kg/m3 and 1188.53 kg/m3	–
